Assay results taken from the NIST ThermoML archive (doi:10.1021/je5003779).
± gives the expanded uncertainty stated by the source.

Tests used:
[1] = refractive index (other wavelength) (dimensionless); xn = mol fraction of the nth substance listed; settings: 296.27 K, 101 kPa, Liquid, Wavelength=632.8 nm, Standard Abbe refractometry
[2] = heat capacity at constant pressure per volume; xn = mol fraction of the nth substance listed; settings: 101 kPa, Liquid, Differential Scanning Calorimeter, x1 = 0.133
[3] = refractive index (other wavelength) (dimensionless); settings: 101.3 kPa, Liquid, Wavelength=632.8 nm, Standard Abbe refractometry

## CCCO [propan-1-ol] + CCn1cc[n+](C)c1.O=S(=O)([N-]S(=O)(=O)C(F)(F)F)C(F)(F)F
[1]; x2 = 0
  refractive index: 1.3823 ± 0.0004

## CCn1cc[n+](C)c1.O=S(=O)([N-]S(=O)(=O)C(F)(F)F)C(F)(F)F + CCCO
[2]; 295 K
  heat capacity: 2448000 ± 120000 J/K/m3
[2]; 296 K
  heat capacity: 2164000 ± 110000 J/K/m3
[2]; 297 K
  heat capacity: 2118000 ± 110000 J/K/m3
[2]; 298 K
  heat capacity: 2122000 ± 110000 J/K/m3
[2]; 299 K
  heat capacity: 2105000 ± 100000 J/K/m3
[2]; 300 K
  heat capacity: 2103000 ± 100000 J/K/m3
[2]; 301 K
  heat capacity: 2101000 ± 100000 J/K/m3
[2]; 302 K
  heat capacity: 2082000 ± 100000 J/K/m3
[2]; 303 K
  heat capacity: 2087000 ± 100000 J/K/m3
[2]; 304.01 K
  heat capacity: 2092000 ± 100000 J/K/m3
[2]; 305 K
  heat capacity: 2090000 ± 100000 J/K/m3
[2]; 306 K
  heat capacity: 2090000 ± 100000 J/K/m3
[2]; 307 K
  heat capacity: 2094000 ± 100000 J/K/m3
[2]; 308 K
  heat capacity: 2095000 ± 100000 J/K/m3
[2]; 309 K
  heat capacity: 2098000 ± 100000 J/K/m3
[2]; 310 K
  heat capacity: 2097000 ± 100000 J/K/m3
[2]; 311 K
  heat capacity: 2098000 ± 100000 J/K/m3
[2]; 312 K
  heat capacity: 2102000 ± 100000 J/K/m3
[2]; 313 K
  heat capacity: 2103000 ± 100000 J/K/m3
[2]; 314 K
  heat capacity: 2103000 ± 100000 J/K/m3
[2]; 315 K
  heat capacity: 2108000 ± 100000 J/K/m3
[2]; 316 K
  heat capacity: 2108000 ± 100000 J/K/m3
[2]; 317 K
  heat capacity: 2111000 ± 110000 J/K/m3
[2]; 318 K
  heat capacity: 2113000 ± 110000 J/K/m3
[2]; 319 K
  heat capacity: 2114000 ± 110000 J/K/m3
[2]; 320 K
  heat capacity: 2117000 ± 110000 J/K/m3
[2]; 321 K
  heat capacity: 2117000 ± 110000 J/K/m3
[2]; 322 K
  heat capacity: 2121000 ± 110000 J/K/m3
[2]; 323 K
  heat capacity: 2124000 ± 110000 J/K/m3
[2]; 324 K
  heat capacity: 2125000 ± 110000 J/K/m3
[2]; 325 K
  heat capacity: 2124000 ± 110000 J/K/m3
[2]; 326 K
  heat capacity: 2129000 ± 110000 J/K/m3
[2]; 327 K
  heat capacity: 2131000 ± 110000 J/K/m3
[2]; 328 K
  heat capacity: 2133000 ± 110000 J/K/m3
[2]; 329.01 K
  heat capacity: 2135000 ± 110000 J/K/m3
[2]; 330 K
  heat capacity: 2134000 ± 110000 J/K/m3
[2]; 331 K
  heat capacity: 2139000 ± 110000 J/K/m3
[1]; x1 = 0.021
  refractive index: 1.3854 ± 0.0004
[1]; x1 = 0.056
  refractive index: 1.3896 ± 0.0004
[1]; x1 = 0.097
  refractive index: 1.3935 ± 0.0004
[1]; x1 = 0.142
  refractive index: 1.3971 ± 0.0004
[1]; x1 = 0.149
  refractive index: 1.3977 ± 0.0004
[1]; x1 = 0.192
  refractive index: 1.4006 ± 0.0004
[1]; x1 = 0.243
  refractive index: 1.4036 ± 0.0004
[1]; x1 = 0.306
  refractive index: 1.4064 ± 0.0004
[1]; x1 = 0.397
  refractive index: 1.4099 ± 0.0004
[1]; x1 = 0.502
  refractive index: 1.4131 ± 0.0004
[1]; x1 = 0.699
  refractive index: 1.4174 ± 0.0004
[1]; x1 = 0.855
  refractive index: 1.4199 ± 0.0004
[1]; x1 = 1
  refractive index: 1.4222 ± 0.0004

## CCn1cc[n+](C)c1.O=S(=O)([N-]S(=O)(=O)C(F)(F)F)C(F)(F)F
[3]; 285.03 K
  refractive index: 1.4252 ± 0.0004
[3]; 287.17 K
  refractive index: 1.4246 ± 0.0004
[3]; 288.97 K
  refractive index: 1.4242 ± 0.0004
[3]; 290.28 K
  refractive index: 1.4238 ± 0.0004
[3]; 291.11 K
  refractive index: 1.4236 ± 0.0004
[3]; 292.19 K
  refractive index: 1.4233 ± 0.0004
[3]; 293.16 K
  refractive index: 1.423 ± 0.0004
[3]; 294.21 K
  refractive index: 1.4227 ± 0.0004
[3]; 295.18 K
  refractive index: 1.4225 ± 0.0004
[3]; 297.26 K
  refractive index: 1.4219 ± 0.0004

## CCCO [propan-1-ol]
[3]; 284.73 K
  refractive index: 1.387 ± 0.0004
[3]; 286.91 K
  refractive index: 1.3861 ± 0.0004
[3]; 288.21 K
  refractive index: 1.3856 ± 0.0004
[3]; 289.24 K
  refractive index: 1.3851 ± 0.0004
[3]; 290.26 K
  refractive index: 1.3847 ± 0.0004
[3]; 291.26 K
  refractive index: 1.3843 ± 0.0004
[3]; 292.59 K
  refractive index: 1.3837 ± 0.0004
[3]; 293.69 K
  refractive index: 1.3833 ± 0.0004
[3]; 296.27 K
  refractive index: 1.3823 ± 0.0004
